Key:
HT-29 colon cancer cells = assay: MTT antitumor assay, HT-29; format: cell-based; settings: Homo sapiens, HT-29, 48 h, read-out: IC50 (μM) ± SD HT-29
A-549 lung cancer cells = assay: MTT antitumor assay, A-549; format: cell-based; settings: Homo sapiens, A549, 48 h, read-out: IC50 (μM) ± SD A-549
[1] = tested on: MCF-7 breast cancer cells; assay: MTT antitumor assay, MCF-7; format: cell-based; settings: Homo sapiens, MCF7, 48 h, read-out: IC50 (μM) ± SD MCF-7
[2] = MTT assay, normal fibroblast cell line HDF; format: cell-based; settings: human, HDF normal fibroblast cells
EGFR tyrosine kinase = EGFR tyrosine kinase (Homo sapiens, UniProt P00533); assay: EGFR Kinase Assay Kit / Kinase-Glo luminescence kinase assay; format: biochemical
Sequence of EGFR tyrosine kinase (P00533 25-1210): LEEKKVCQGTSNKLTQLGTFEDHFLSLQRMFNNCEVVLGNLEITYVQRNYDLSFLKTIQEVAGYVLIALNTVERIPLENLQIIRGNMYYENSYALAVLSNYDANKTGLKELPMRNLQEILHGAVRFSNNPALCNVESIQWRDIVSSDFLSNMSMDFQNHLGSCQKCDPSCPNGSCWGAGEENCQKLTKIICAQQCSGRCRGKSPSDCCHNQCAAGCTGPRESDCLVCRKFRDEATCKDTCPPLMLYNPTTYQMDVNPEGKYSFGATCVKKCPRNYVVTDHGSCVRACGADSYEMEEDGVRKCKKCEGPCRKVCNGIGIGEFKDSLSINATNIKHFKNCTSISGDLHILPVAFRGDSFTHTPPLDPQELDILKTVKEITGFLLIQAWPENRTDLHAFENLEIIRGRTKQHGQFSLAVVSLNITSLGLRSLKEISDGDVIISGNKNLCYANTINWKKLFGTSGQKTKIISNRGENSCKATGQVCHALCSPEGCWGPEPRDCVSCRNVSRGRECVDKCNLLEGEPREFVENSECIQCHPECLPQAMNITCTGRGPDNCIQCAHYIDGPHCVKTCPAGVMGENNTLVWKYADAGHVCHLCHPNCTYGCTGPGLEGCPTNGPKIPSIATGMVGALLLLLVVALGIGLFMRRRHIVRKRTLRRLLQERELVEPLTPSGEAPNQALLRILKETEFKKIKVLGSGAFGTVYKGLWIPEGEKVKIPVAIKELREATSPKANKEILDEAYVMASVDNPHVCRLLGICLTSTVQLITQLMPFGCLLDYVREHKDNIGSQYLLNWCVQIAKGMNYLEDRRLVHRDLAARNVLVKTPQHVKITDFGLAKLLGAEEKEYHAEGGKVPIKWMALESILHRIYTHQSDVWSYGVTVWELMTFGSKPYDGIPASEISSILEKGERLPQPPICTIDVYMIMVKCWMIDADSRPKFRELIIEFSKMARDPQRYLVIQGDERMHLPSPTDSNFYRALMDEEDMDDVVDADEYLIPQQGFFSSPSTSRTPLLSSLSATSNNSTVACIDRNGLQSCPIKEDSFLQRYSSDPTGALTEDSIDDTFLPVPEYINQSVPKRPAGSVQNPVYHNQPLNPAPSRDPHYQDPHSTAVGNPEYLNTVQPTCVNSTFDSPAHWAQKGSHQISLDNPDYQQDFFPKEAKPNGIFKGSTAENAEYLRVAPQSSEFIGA

Row | Compound | IC50 (HT-29 colon cancer cells) | IC50 (A-549 lung cancer cells) | IC50 [1] | IC50 at 48 h [2] | IC50 (EGFR tyrosine kinase)
1 | Cc1ccc(CNc2ccc3nc(N)nc(Nc4ccccc4)c3c2)cc1 [10d, N^6-(4-methylbenzyl)-N^4-phenylquinazoline-2,4,6-triamine] | ≥ 100 µM | 0.126 ± 0.019 µM | ≥ 100 µM | ≥ 100 µM | 45.5 µM
2 | Nc1nc(Nc2ccccc2)c2cc(NCc3ccccc3)ccc2n1 [10a, N^6-benzyl-N^4-phenylquinazoline-2,4,6-triamine] | ≥ 100 µM | ≥ 100 µM | ≥ 100 µM | ≥ 100 µM | 
3 | Cc1ccc(Nc2nc(N)nc3ccc(NCc4ccccc4)cc23)cc1 [10g, N^6-benzyl-N^4-p-methylphenyl quinazoline-2,4,6-triamine] | ≥ 100 µM | ≥ 100 µM | ≥ 100 µM | ≥ 100 µM | 
4 | COc1ccc(CNc2ccc3nc(N)nc(Nc4ccccc4)c3c2)cc1 [10e, N^6-(4-methoxybenzyl)-N^4-phenylquinazoline-2,4,6-triamine] | 13.5 ± 1.89 µM | 15 ± 0.9 µM | 63.5 ± 1.39 µM | ≥ 100 µM | 3.53 µM

The remaining lines, values ahead:

Row | IC50 (HT-29 colon cancer cells) | IC50 (A-549 lung cancer cells) | IC50 [1] | IC50 at 48 h [2] | IC50 (EGFR tyrosine kinase) | Compound
5 | 28.1 ± 0.69 µM | 73.3 ± 1.5 µM | 18.2 ± 2.6 µM | ≥ 100 µM |  | C#Cc1cccc(Nc2ncnc3cc(OCCOC)c(OCCOC)cc23)c1 [Erlotinib, reference compound]
6 | ≥ 100 µM | ≥ 100 µM | ≥ 100 µM | ≥ 100 µM |  | Cc1ccc(C(=O)Nc2ccc3nc(N)nc(Nc4ccccc4)c3c2)cc1 [10n, N-(2-amino-4-(phenylamino)quinazolin-6-yl)-4-methylbenzamide]
7 | ≥ 100 µM | ≥ 100 µM | ≥ 100 µM | ≥ 100 µM |  | Nc1nc(Nc2ccccc2)c2cc(NC(=O)c3ccc(F)cc3)ccc2n1 [10p, N-(2-amino-4-(phenylamino)quinazolin-6-yl)-4-fluorobenzamide]
8 | ≥ 100 µM | ≥ 100 µM | ≥ 100 µM | ≥ 100 µM |  | Nc1nc(Nc2ccc(F)cc2)c2cc(NCc3ccccc3)ccc2n1 [10l, N^6-benzyl-N^4-(4-fluorophenyl) quinazoline-2,4,6-triamine]
9 | ≥ 100 µM | ≥ 100 µM | ≥ 100 µM | ≥ 100 µM |  | COc1ccc(Nc2nc(N)nc3ccc(NCc4ccccc4)cc23)cc1 [10h, N^6-benzyl-N^4-(4-methoxyphenyl) quinazoline-2,4,6-triamine]
10 | 56.3 ± 0.9 µM | 4.3 ± 0.3 µM | 4.07 ± 0.38 µM | ≥ 100 µM |  | COc1cccc2c1C(=O)c1c(O)c3c(c(O)c1C2=O)C[C@@](O)(C(=O)CO)C[C@@H]3O[C@H]1C[C@H](N)[C@H](O)[C@H](C)O1 [Doxorubicin, reference compound]

Source: paper PMC10008000 (Iranian Journal of Pharmaceutical Research : IJPR, 2023)
